The source of these data is ChEMBL document CHEMBL2150862, “Cyclopropyl-spiro-piperidines Useful as Sodium Channel Blockers: Patent Highlight” (ACS Med Chem Lett, 2012).

The assay concerns the target Sodium channel protein type 9 subunit alpha (Homo sapiens, UniProt Q15858). Nature of the assay: Inhibition of Nav1.7 by cell-based FLIPR assay.

Molecules are shown by their SMILES.

Sodium channel protein type 9 subunit alpha, sequence (Q15858 whole entry): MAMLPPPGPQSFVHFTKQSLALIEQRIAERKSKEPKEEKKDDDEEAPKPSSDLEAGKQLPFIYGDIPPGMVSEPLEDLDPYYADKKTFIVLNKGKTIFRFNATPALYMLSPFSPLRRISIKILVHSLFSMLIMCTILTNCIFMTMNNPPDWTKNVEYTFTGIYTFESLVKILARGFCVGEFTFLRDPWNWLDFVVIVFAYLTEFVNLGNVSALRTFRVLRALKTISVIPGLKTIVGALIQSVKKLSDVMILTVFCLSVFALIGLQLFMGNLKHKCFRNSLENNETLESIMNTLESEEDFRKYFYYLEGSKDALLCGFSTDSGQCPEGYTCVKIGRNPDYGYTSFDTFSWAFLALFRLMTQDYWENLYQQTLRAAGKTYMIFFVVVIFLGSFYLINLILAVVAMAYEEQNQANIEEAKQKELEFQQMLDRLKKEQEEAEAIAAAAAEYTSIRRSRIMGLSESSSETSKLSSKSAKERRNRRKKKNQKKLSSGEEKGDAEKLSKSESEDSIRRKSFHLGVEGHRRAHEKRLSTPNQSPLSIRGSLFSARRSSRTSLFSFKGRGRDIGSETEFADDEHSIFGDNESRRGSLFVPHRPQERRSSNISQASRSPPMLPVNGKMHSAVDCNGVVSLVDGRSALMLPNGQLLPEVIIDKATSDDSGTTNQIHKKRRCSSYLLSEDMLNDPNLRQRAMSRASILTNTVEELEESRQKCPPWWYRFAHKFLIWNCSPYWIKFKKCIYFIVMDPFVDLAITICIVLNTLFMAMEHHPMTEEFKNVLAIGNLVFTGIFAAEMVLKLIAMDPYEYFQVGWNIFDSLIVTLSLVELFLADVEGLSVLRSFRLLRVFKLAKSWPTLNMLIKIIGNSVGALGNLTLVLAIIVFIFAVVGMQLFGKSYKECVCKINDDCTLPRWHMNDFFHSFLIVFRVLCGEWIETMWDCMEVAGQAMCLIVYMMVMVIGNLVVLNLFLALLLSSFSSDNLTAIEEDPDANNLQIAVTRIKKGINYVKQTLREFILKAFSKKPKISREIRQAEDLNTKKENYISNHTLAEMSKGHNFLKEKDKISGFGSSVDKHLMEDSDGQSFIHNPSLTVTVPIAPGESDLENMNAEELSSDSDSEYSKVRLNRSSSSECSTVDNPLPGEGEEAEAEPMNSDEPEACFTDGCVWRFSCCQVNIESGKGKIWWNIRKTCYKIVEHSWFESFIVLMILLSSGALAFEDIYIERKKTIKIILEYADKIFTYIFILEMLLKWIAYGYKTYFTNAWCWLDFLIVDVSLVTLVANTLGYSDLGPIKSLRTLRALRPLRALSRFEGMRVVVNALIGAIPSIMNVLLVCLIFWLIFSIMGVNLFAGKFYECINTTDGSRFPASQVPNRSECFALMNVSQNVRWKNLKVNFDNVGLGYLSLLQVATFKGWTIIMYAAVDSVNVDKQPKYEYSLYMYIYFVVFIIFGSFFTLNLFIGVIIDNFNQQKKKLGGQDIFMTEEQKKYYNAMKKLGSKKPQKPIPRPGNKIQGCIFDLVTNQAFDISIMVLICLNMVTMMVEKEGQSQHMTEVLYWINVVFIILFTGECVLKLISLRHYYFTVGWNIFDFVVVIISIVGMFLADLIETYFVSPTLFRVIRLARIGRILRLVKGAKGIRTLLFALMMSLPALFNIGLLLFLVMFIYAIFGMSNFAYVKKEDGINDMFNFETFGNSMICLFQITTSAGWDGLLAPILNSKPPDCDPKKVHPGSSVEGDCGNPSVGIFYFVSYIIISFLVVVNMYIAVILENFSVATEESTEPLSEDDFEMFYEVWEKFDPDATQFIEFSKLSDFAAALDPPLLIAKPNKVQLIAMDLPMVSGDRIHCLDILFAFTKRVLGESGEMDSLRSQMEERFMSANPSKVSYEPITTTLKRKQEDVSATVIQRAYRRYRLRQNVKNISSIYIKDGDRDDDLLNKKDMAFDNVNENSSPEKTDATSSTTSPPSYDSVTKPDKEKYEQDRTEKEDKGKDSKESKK

For orientation: IC50 means the concentration that gives 50% inhibition. A higher IC50 goes with weaker potency. The compound `O=C(NC1CC12CCN(c1ccccc1)CC2)c1ccc(F)c2ccccc12` (stereo unspecified) yielded an IC50 of 188 nM.

For the compound `CN(C)c1ccc(C(=O)NC2CC23CCN(c2ccccc2)CC3)c2ccccc12` (stereo unspecified), half-maximal inhibition (IC50) was put at 98.3 nM.

Turning to `CN(C)c1ccc(C(=O)NC2CC23CCN(c2cc(F)cc(F)c2)CC3)c2ccccc12` (stereo unspecified), 151 nM corresponded to half-maximal inhibition (IC50).

In turn, `c1ccc(CN2CCC3(CC2)CC3CNc2ccccc2N2CCCCC2)cc1` (stereo unspecified) gave a half-maximal inhibitory concentration (IC50) of 291 nM.

Compound `c1ccc(CC(NCC2CC23CCN(c2ccccc2)CC3)c2ccccc2)cc1` (stereo unspecified) returned an IC50 of 177 nM.

In turn, `CN(C)c1cccc2c(C(=O)NC3CC34CCN(c3ccccc3)CC4)cccc12` (stereo unspecified) gave an IC50 of 237 nM.
